Values joined by “and” are separate entries in the source; they are usually repeats but may differ in a detail not shown here. Equal entries are not always repeated.
Experiments:
Type in all cases: cell-based
HIV-1-GFP [1] = test: Anti-HIV-1 activity in U937 cells transduced with wt SAMHD1 or HD206-7AA mutant
Procedure: (§1) Antiviral assays were further performed in monocytoid cells transduced with YFP-expressing VLPs containing WT SAMHD1, HD206-7AA or Vpx. Briefly, U937 cells (6 × 10^5 cells/mL) were transduced with WT SAMHD1-YFP or HD206-7AA-YFP VLPs by spinoculation at 800 × g for 90 min in the presence of 1 μg/mL polybrene. Similarly, THP-1 cells (6 × 10^5 cells/mL) were transduced with Vpx-YFP VLPs by spinoculation at 800 × g for 90 min in the presence of 1 μg/mL polybrene. Cells were incubated at 37 °C in 5% CO2 and after 72 h, PMA^+ cells (6 × 10^5 cells/mL) were treated with 100 nM PMA and PMA^− cells (7.5 × 10^4 cells/mL) were left untreated. Cells were then incubated at 37 °C in 5% CO2 for 48 h. Nucleoside analogues were added at increasing concentrations (0–200 μM; except CFB, 0–1.6 μM) and cells were further incubated for 48 h. PMA^− cells were then infected with HIV-1-GFP by spinoculation at 800 × g for 90 min in the presence of 1 μg/mL polybrene, PMA^+ cells were infected with HIV-1-GFP in the presence of 1 μg/mL polybrene only. Cells were incubated for 72 h at 37 °C in 5% CO2 and then analysed by two-colour flow cytometry using a Fortessa X20 analyser (BD Biosciences). Data were analysed using the FlowJo software suite.
(§2) The cytotoxic concentration of nucleoside analogue that inhibits cell viability by 50% (CC50) and the effective concentration of nucleoside analogue that inhibits infection of cells by 50% (EC50) were calculated for each independent experiment by non-linear regression using GraphPad Prism v6.00 for Windows (GraphPad Software, San Diego, CA). Non-ambiguous values were subjected to a replicate test to calculate confidence intervals of 95% (95% CI). CC50 and EC50 values were determined for at least two independent experiments for each nucleoside analogue and a selectivity index (SI) also calculated, (SI = CC50/EC50). EC50 values for each replicate were used to perform an unpaired two-tailed t-test to determine significant differences between U937 cells expressing SAMHD1 wt or HD206-7AA mutant and THP-1 cells expressing Vpx or untransduced cells. P values of <0.005 were considered statistically significant.

HIV-1-GFP [2] = test: microbe, parasite or virus in culture
Procedure: Cells were then infected with HIV-1-GFP by spinoculation at 800 × g for 90 min in the presence of 1 μg/mL polybrene, and further incubated at 37 °C in 5% CO2 for 72 h. […] Cells were then infected with HIV-1-GFP by spinoculation at 800 × g for 90 min in the presence of 1 μg/mL polybrene, and further incubated at 37 °C in 5% CO2 for 72 h. Non-dividing U937 and THP-1 (PMA^+) cells (6 × 10^5 cells/mL) were differentiated by addition of 100 nM PMA (PMA^+) for 48 h and treated with increasing concentrations of nucleoside analogues as described above. Cells were then infected with HIV-1-GFP in the presence of 1 μg/mL polybrene and further incubated at 37 °C in 5% CO2 for 72 h. The percentage of GFP^+cells was determined by one-colour flow cytometry using a Fortessa X20 analyser (BD Biosciences) and the data analysed using the FlowJo software suite.
Non-ambiguous values were subjected to a replicate test to calculate confidence intervals of 95% (95% CI). CC50 and EC50 values were determined for at least two independent experiments for each nucleoside analogue and a selectivity index (SI) also calculated, (SI = CC50/EC50). EC50 values for each replicate were used to perform an unpaired two-tailed t-test to determine significant differences between U937 cells expressing SAMHD1 wt or HD206-7AA mutant and THP-1 cells expressing Vpx or untransduced cells. P values of <0.005 were considered statistically significant.

[3] = Cytotoxicity, live cells by flow cytometry, H9 cells; settings: human
Procedure: (§3) H9, Jurkat and undifferentiated U937 and THP-1 (PMA^−) cells (6 × 10^5 cells/mL) were treated with increasing concentrations of nucleoside analogues (0–200 μM; except CFB, 0–1.6 μM) and incubated at 37 °C in 5% CO2 for 48 h. Medium was then replaced and cells were further incubated for 72 h. Non-dividing U937 and THP-1 (PMA^+) cells (6 × 10^5 cells/mL) were differentiated by addition of 100 nM phorbol-12-myristate-13-acetate (PMA^+) for 48 h and then treated with increasing concentrations of nucleoside analogues as described above. The percentage of live cells was determined by flow cytometry using Live/Dead fixable blue-fluorescent dyes (Invitrogen) and a Fortessa X20 analyser (BD Biosciences). Data were analysed using the FlowJo software suite.
as §2

HIV-1-GFP [4] = test: Anti-HIV-1 activity in THP-1 cells with or without Vpx transduction
Procedure: as §1, §2

[5] = Cytotoxicity, live cells by flow cytometry, Jurkat cells; settings: human
Procedure: as §3, §2

[6] = Cytotoxicity, live cells by flow cytometry, THP-1 cells (PMA−/PMA+); settings: human
Procedure: as §3, §2

THP-1 cells = test: as above; settings: human, 48 h
Procedure: as §3, §2

[7] = Cytotoxicity, live cells by flow cytometry, U937 cells (PMA−/PMA+); settings: human
Procedure: as §3, §2

U937 cells = test: as above; settings: human, 48 h
Procedure: as §3, §2

[8] = Human immunodeficiency virus 1, U-937, read-out: EC50 [95% CI], U937 PMA+, HD206/7AA+ population
[9] = Human immunodeficiency virus 1, U-937, read-out: EC50 [95% CI], U937 PMA+, SAMHD1+ population
[10] = Human immunodeficiency virus 1, U-937, read-out: EC50 [95% CI], U937 PMA−, HD206/7AA+ population
[11] = Human immunodeficiency virus 1, U-937, read-out: EC50 [95% CI], U937 PMA−, SAMHD1+ population
[12] = U937 PMA−, HD206/7AA+ population
[13] = Human immunodeficiency virus 1, H9, read-out: EC50 anti-HIV-1, H9 cells
[14] = Human immunodeficiency virus 1, Jurkat, read-out: EC50 anti-HIV-1, Jurkat cells
[15] = Human immunodeficiency virus 1, THP-1, read-out: EC50 [95% CI], THP1 PMA+, Vpx+
[16] = Human immunodeficiency virus 1, THP-1, read-out: EC50 [95% CI], THP1 PMA+, Vpx−
[17] = Human immunodeficiency virus 1, THP-1, read-out: EC50 [95% CI], THP1 PMA−, Vpx+
[18] = Human immunodeficiency virus 1, THP-1, read-out: EC50 [95% CI], THP1 PMA−, Vpx−

Compound	EC50 (HIV-1-GFP [1]; [8]) [µM]	EC50 (HIV-1-GFP [1]; [9]) [µM]	EC50 (HIV-1-GFP [1]; [10]) [µM]	EC50 (HIV-1-GFP [1]; [11]) [µM]	Fold (EC50 HD206/7AA vs SAMHD1) (HIV-1-GFP [1]; U937 PMA+) [fold]	EC50 (HIV-1-GFP [2]; [13]) [µM]	EC50 (HIV-1-GFP [2]; [14]) [µM]	CC50 at 48 h [3] [µM]	EC50 (HIV-1-GFP [4]; [15]) [µM]	EC50 (HIV-1-GFP [4]; [16]) [µM]	EC50 (HIV-1-GFP [4]; [17]) [µM]	EC50 (HIV-1-GFP [4]; [18]) [µM]	Fold (EC50 Vpx+ vs Vpx−) (HIV-1-GFP [4]; THP1 PMA+) [fold]	CC50 at 48 h [5] [µM]	CC50 at 48 h [6] [µM]	CC50 (THP-1 cells) [µM]	CC50 at 48 h [7] [µM]	CC50 (U937 cells) [µM]	Fold (EC50 HD206/7AA vs SAMHD1) (HIV-1-GFP [1]; U937 PMA−) [fold]	SI, selectivity index CC50/EC50 (HIV-1-GFP [2]; H9 cells)	also measured
Nc1nc2c(ncn2COCCO)c(=O)[nH]1 [ACV, Acycloguanosine]	50.9	0.652	> 200	> 200	78	> 200	> 200	> 200	29.6	1.08	> 200	> 200	27	> 200	> 200	> 200	> 200	> 200	–	–	EC50 [95% CI] (HIV-1-GFP [1]; [12]): no anti-HIV-1 activity; EC50 [95% CI] (HIV-1-GFP [1]; U937 PMA−, SAMHD1+ population): no anti-HIV-1 activity
Nc1nc(O)c2ncn(COC(CO)CO)c2n1 [GCV, 2′-Nor-2′-deoxyguanosine]	> 200	0.876	> 200	> 200	–	> 200	> 200	> 200	> 200	0.632	> 200	> 200	>316	> 200	> 200	> 200	> 200	> 200	–	–	EC50 [95% CI] (HIV-1-GFP [1]; [12]): no anti-HIV-1 activity; EC50 [95% CI] (HIV-1-GFP [1]; U937 PMA−, SAMHD1+ population): no anti-HIV-1 activity
Cc1ccnc2c1NC(=O)c1cccnc1N2C1CC1 [NVP, Nevirapine]	0.145	0.097	0.124	0.112	1	0.158	0.486	–	0.235	0.223	0.292	0.244	1	–	–	–	–	–	1	> 1266	EC50 anti-HIV-1 (HIV-1-GFP [2]; H9 cells): nanomolar concentrations; EC50 anti-HIV-1 (HIV-1-GFP [2]; Jurkat cells): nanomolar concentrations; CC50 at 48 h ([3]; H9 cells, read-out: CC50): > 200 µM; Fold (EC50 Vpx+ vs Vpx−) (HIV-1-GFP [4]; THP1 PMA−): 1 fold; CC50 at 48 h ([5]; Jurkat cells, read-out: CC50): > 200 µM; CC50 at 48 h ([6]; PMA-differentiated, non-dividing THP-1 cells (PMA+), THP-1 PMA+, read-out: CC50): > 200 µM; CC50 at 48 h ([6]; undifferentiated THP-1 cells (PMA−), THP-1 PMA−, read-out: CC50): > 200 µM; CC50 at 48 h ([7]; PMA-differentiated, non-dividing U937 cells (PMA+), U937 PMA+, read-out: CC50): > 200 µM; CC50 at 48 h ([7]; undifferentiated U937 cells (PMA−), U937 PMA−, read-out: CC50): > 200 µM
Cc1nnc(C(=O)NC(C)(C)c2nc(C(=O)NCc3ccc(F)cc3)c(O)c(=O)n2C)o1 [RAL, Raltegravir]	0.075	0.07	0.012	0.011	1	0.002	0.004	–	0.037	0.038	0.043	0.035	1	–	–	–	–	–	1	> 100000	EC50 anti-HIV-1 (HIV-1-GFP [2]; H9 cells): nanomolar concentrations; EC50 anti-HIV-1 (HIV-1-GFP [2]; Jurkat cells): nanomolar concentrations; CC50 at 48 h ([3]; H9 cells, read-out: CC50): > 200 µM; Fold (EC50 Vpx+ vs Vpx−) (HIV-1-GFP [4]; THP1 PMA−): 1 fold; CC50 at 48 h ([5]; Jurkat cells, read-out: CC50): > 200 µM; CC50 at 48 h ([6]; THP-1 PMA+, read-out: CC50): > 200 µM; CC50 at 48 h ([6]; THP-1 PMA−, read-out: CC50): > 200 µM; CC50 at 48 h ([7]; U937 PMA+, read-out: CC50): > 200 µM; CC50 at 48 h ([7]; U937 PMA−, read-out: CC50): > 200 µM
Cc1cn([C@H]2C=C[C@@H](CO)O2)c(=O)[nH]c1=O [d4T, 2′,3′-didehydro-2′,3′-dideoxythymidine]	5.82	0.528	2.71	0.801	11	< 10	< 10	> 200	52.2	1.49	13.3	4.39	35	> 200	> 200	> 200	> 200	> 200	3	> 36 and > 30	SI, selectivity index CC50/EC50 (HIV-1-GFP [2]; Jurkat cells): > 30; EC50 (HIV-1-GFP [2]; read-out: EC50 anti-HIV-1, H9 cells): 5.57 µM; EC50 (HIV-1-GFP [2]; read-out: EC50 anti-HIV-1, Jurkat cells): 6.56 µM
